Legend:
MM1.S cells = assay: CellTiter 96 AQueous One Solution cell proliferation assay (MTS); assay type: cell-based; details: Homo sapiens, 72 h of treatment, MTS absorbance at 490 nm
Description: The CellTiter 96® AQueous One Solution cell proliferation assay (Promega) was used on MM1.S cells to study the cytotoxic and cytostatic properties of the compounds. The assay is based on the cleavage of the tetrazolium salt, MTS, in the presence of an electron-coupling reagent PES (phenazine ethosulfate). The MTS tetrazolium compound is bioreduced by cells into a colored formazan product that is soluble in tissue culture medium. This conversion is presumably accomplished by NADPH or NADH produced by dehydrogenase enzymes in metabolically active cells. Assays are performed by adding a small amount of the CellTiter 96® AQueous One solution reagent directly to culture wells, incubating for 1-4 hours and then recording the absorbance at 490 nm with a 96-well plate reader.
The cells were seeded at 5×10^3 to 1.5×10^4 cells (depending on cell type) in each well of 96-well plate in 100 μL of fresh culture medium and adherent cells were allowed to attach for overnight. The stock solutions of the compounds were diluted in cell culture medium to obtain eight concentrations of each drug, ranging from 1 nM to 30 μM and DMSO at less than 1% v/v was used as a negative control. After 72 h of treatment, 20 μL of CellTiter 96® AQueous reagent was added into each well of the 96-well assay plates and the plate was incubate at 37° C. for 1-4 hours in a humidified, 5% CO2 atmosphere. Then the absorbance of each well was recorded at 490 nm by using a 96-well plate reader. In most cases, the assay was performed in triplicates and the results were presented as half maximal inhibitory concentration (IC50). Optical density versus compound concentration was plotted and analyzed using non linear regression equations (Excel Fit) and the IC50 for each compound was calculated.

CRM1 = molecular target: T1, CRM1 (Homo sapiens, UniProt O14980); assay: CRM1-mediated nuclear export assay (GFP nuclear localization in HeLa cells); assay type: cell-based; details: HeLa cells expressing NLS-GFP-NES(PKI), 3 hours, concentration at which approximately 50% of the cells showed nuclear GFP
T1 construct: HeLa cells expressing GFP that was N-terminally fused to a nuclear localization and C-terminally fused to the nuclear export signal of PKI; endogenous in cells; host or cells: HeLa cells expressing an NLS-GFP-NES(PKI) reporter
T1 sequence (O14980 whole entry, the tested form may be a part): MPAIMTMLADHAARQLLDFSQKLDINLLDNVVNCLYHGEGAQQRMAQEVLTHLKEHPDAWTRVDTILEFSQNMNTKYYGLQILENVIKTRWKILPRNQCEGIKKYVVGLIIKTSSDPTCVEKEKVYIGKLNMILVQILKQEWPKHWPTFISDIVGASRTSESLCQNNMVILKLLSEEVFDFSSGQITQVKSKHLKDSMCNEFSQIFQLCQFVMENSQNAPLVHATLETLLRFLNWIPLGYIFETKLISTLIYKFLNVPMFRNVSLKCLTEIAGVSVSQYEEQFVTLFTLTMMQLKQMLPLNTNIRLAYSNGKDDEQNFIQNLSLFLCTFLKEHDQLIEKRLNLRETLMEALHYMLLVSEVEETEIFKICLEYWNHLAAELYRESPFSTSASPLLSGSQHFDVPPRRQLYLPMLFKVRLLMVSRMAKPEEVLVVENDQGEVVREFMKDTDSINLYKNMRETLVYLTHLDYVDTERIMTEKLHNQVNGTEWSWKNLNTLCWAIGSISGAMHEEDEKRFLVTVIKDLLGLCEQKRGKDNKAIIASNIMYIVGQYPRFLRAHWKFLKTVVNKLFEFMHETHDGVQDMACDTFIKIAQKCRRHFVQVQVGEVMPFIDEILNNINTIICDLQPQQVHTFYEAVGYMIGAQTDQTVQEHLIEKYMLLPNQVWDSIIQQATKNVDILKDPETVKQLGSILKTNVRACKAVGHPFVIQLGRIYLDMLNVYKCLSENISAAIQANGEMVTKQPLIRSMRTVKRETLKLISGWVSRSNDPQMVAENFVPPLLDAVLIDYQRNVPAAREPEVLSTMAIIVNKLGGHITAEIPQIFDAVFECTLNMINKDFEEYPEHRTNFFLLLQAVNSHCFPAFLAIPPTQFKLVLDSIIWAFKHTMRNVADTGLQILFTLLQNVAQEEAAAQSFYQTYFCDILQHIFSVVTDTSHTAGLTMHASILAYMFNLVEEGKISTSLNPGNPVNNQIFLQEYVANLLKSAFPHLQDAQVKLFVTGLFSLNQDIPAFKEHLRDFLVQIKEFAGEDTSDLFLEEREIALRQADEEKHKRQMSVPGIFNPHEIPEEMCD
Protocol: HeLa cells expressing GFP that was N-terminally fused to a nuclear localization and C-terminally fused to the nuclear export signal of PKI were treated with different concentrations of test compounds for 3 hours and then scored for nuclear localization of GFP.
HeLa cells were cultured in Dulbecco's modified Eagle's medium (DMEM) supplemented with 10% (vol/vol) heat-inactivated fetal calf serum, 2 mM L-glutamine 0.1% sodium bicarbonate, and 20 μg/ml gentamicin. The cells were plated in 96-well plates at 0.02×10^6 cells/well and incubated overnight. The next day, compound was added to the cells and incubated for another 3 hours. After 3 hours, GFP subcellular localization was monitored using a Leica DMI6000 microscope.

SMILES | IC50 (MM1.S cells) [nM] | EC50 (CRM1) [nM]
C=C(Cn1cnc(-c2cc(C(F)(F)F)cc(C(F)(F)F)c2)n1)C(=O)NNc1ccccn1 [Compound 6, 2-((3-(3,5-bis(trifluoromethyl)phenyl)-1H-1,2,4-triazol-1-yl)methyl)-N′-(pyridin-2-yl)acrylohydrazide] | 70 | 900
C=C(Cn1nnc(-c2ccccc2)n1)C(=O)N1CCCCC1 [Compound 10, 2-((5-phenyl-2H-tetrazol-2-yl)methyl)-1-(piperidin-1-yl)prop-2-en-1-one] | – | > 30000
C=C(Cn1cnc(-c2cc(C(F)(F)F)cc(C(F)(F)F)c2)n1)C(=O)OC(C)C [Compound 1, isopropyl 2-((3-(3,5-bis(trifluoromethyl)phenyl)-1H-1,2,4-triazol-1-yl)methyl)acrylate] | 100 | 900
C=C(Cn1nnc(-c2cc(C(F)(F)F)cc(C(F)(F)F)c2)n1)C(=O)OC(C)C [Compound 11, isopropyl 2-((5-(3,5-bis(trifluoromethyl)phenyl)-2H-tetrazol-2-yl)methyl)acrylate] | – | 15000
C=C(Cn1nnc(-c2ccccc2)n1)c1nnco1 [Compound 9, 2-(3-(5-phenyl-2H-tetrazol-2-yl)prop-1-en-2-yl)-1,3,4-oxadiazole] | – | 15000
C=C(Cn1cnc(-c2cc(C(F)(F)F)cc(C(F)(F)F)c2)n1)C(=O)NNc1cnccn1 [Compound 7, 2-((3-(3,5-bis(trifluoromethyl)phenyl)-1H-1,2,4-triazol-1-yl)methyl)-N′-(pyrazin-2-yl)acrylohydrazide] | 10 | –
C=C(Cn1cnc(-c2cc(C(F)(F)F)cc(C(F)(F)F)c2)n1)c1nnco1 [Compound 8, 2-(3-(3-(3,5-bis(trifluoromethyl)phenyl)-1H-1,2,4-triazol-1-yl)prop-1-en-2-yl)-1,3,4-oxadiazole] | 30 | 230
C=C(Cn1cnc(-c2cc(OC)cc(C(F)(F)F)c2)n1)C(=O)OCC [Compound 4, ethyl 2-((3-(3-methoxy-5-(trifluoromethyl)phenyl)-1H-1,2,4-triazol-1-yl)methyl)acrylate] | – | 3800
C=C(Cn1cnc(-c2cc(C(F)(F)F)cc(C(F)(F)F)c2)n1)C(=O)N1CC(F)(F)C1 [Compound 5, 2-((3-(3,5-bis(trifluoromethyl)phenyl)-1H-1,2,4-triazol-1-yl)methyl)-1-(3,3-difluoroazetidin-1-yl)prop-2-en-1-one] | 90 | 1800
C=C(Cn1cnc(-c2cc(OC)cc(C(F)(F)F)c2)n1)C(=O)OC(C)C [Compound 3, isopropyl 2-((3-(3-methoxy-5-(trifluoromethyl)phenyl)-1H-1,2,4-triazol-1-yl)methyl)acrylate] | 50 | 1800
